Reference: US20210255184A1, “Biosensor Device and Methods” (The New Zealand Institute for Plant and Food Research …, priority 2018, published 2021)

Biological target: T1, Or35a (Drosophila melanogaster, UniProt Q9V3Q2)
T1 construct: his-tag; made in house; host or cells: baculovirus-infected Sf9 cells
T1 sequence (Q9V3Q2 1-409): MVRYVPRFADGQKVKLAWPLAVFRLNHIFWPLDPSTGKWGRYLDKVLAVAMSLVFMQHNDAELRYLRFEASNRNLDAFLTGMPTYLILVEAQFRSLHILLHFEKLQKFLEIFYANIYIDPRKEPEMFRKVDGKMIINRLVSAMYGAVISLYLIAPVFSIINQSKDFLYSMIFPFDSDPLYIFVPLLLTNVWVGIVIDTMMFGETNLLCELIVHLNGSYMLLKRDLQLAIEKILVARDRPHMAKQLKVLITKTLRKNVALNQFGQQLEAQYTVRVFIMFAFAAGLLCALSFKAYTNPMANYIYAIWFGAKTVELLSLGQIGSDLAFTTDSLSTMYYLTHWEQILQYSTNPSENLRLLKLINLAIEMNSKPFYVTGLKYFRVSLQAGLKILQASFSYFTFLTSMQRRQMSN
Assay: EIS sensor, Or35a liposomes on gold electrode
Format: biochemical
Conditions: EIS dose response
Protocol: PBS (pH=7.4) was used as an electrolyte to conduct electrochemical measurements. PBS buffer was degassed for about 30 minutes prior to electrochemical measurements. Odorant solutions of concentration ranging from 1 aM to 1 μM were prepared by sequential dilution in PBS solution containing 1% DMSO. OR immobilized electrodes were incubated in relevant odorant solution for ˜30 minutes each and washed gently with PBS before EIS measurements.
EIS measurements were done in a 3 electrode cell containing Ag/AgCl (3 M NaCl, 0.209 V vs. SHE) reference electrode, coiled platinum wire as a counter electrode and the gold disk as a working electrode at a fixed voltage of −0.7 using PalmSens potentiostat. Degassed PBS was used as an electrolyte.
EIS measurements were performed on gold electrodes functionalised with OrX liposomes (either Or10a or Or22a), OrX/Orco liposomes, or empty liposomes prior to and after target ligand or control ligand incubation with increasing concentrations (1 aM to 100 μM). Dose response curves were obtained by defining sensor response as −(ΔRp/R^op) versus log[C(Ligand)]. FIG. 4a presents the EIS response in terms of Nyquist plot for the Or10a liposome functionalized sensors when exposed to a solution containing one of the known target ligands of Or10a, methyl salicylate, at various concentrations. […] The dose response curve (FIG. 4b) was obtained by plotting the change in polarization resistance −(ΔRp/R^op) versus log[conc(Ligand)], as the sensor response. Here, Rp is the polarization resistance after Or10a liposome-target interaction and R^op is the polarization resistance before Or10a liposome-target interaction.
Prior to use, 1 mg liposomes (500 μl at 2 mg/ml) were defrosted on ice and then destabilized by incubating with 0.2% CHAPS for 15 min at room temperature. […] All Or35a/Orco integrated liposomes samples were analysed by Western blot before being aliquoted and stored at −80° C. Integration of Or35a/Orco into liposomes was assessed by density gradient ultracentrifugation (DGU) using Accudenz (Accurate Chemical & Scientific Corporation, USA). […]

Structure (SMILES): COC(=O)c1ccccc1O [methyl salicylate]
- sensor response to control ligand: negligible response
